Results reported in ChEMBL document CHEMBL2407029 (Bioorg Med Chem Lett, 2013).
Square brackets hold non-standard residues; d marks the D form. Peptide text beside a SMILES is read from it. Phe(4-I) = N[C@@H](Cc1ccc(I)cc1)C(=O)O

Legend:
[1] = Displacement of [131I]-[D-Ala2,4'-I-Phe8]alpha-Neoendorphin from opioid receptor in CD-1 mouse brain after 90 mins by competitive binding assay; type: tissue-based
[2] = (§1) Binding affinity to opioid receptor in CD-1 mouse brain after 90 mins; conditions: read-out: Kd(app)
[3] = target: Delta-type opioid receptor (Homo sapiens, UniProt P41143); assay: Displacement of [125]IBNtxA from DOR-1 (unknown origin) transfected in CHO cells after 90 mins by competitive binding assay; type: cell-based
[4] = target: Kappa-type opioid receptor (Homo sapiens, UniProt P41145); assay: Displacement of [125]IBNtxA from KOR-1 (unknown origin) transfected in CHO cells after 90 mins by competitive binding assay; type: cell-based
[5] = organism: Mus musculus; assay: as §1; conditions: tested as the 131I-labelled form

SMILES	Ki [1] [nM]	also measured
CC[C@H](C)[C@H](NC(=O)[C@H](CCCNC(=N)N)NC(=O)[C@H](CCCNC(=N)N)NC(=O)[C@H](CC(C)C)NC(=O)[C@H](Cc1ccccc1)NC(=O)CNC(=O)CNC(=O)[C@@H](N)Cc1ccc(O)cc1)C(=O)N[C@@H](CCCNC(=N)N)C(=O)N1CCC[C@H]1C(=O)N[C@@H](CCCCN)C(=O)N[C@@H](CC(C)C)C(=O)N[C@@H](CCCCN)C(=O)N[C@@H](Cc1c[nH]c2ccccc12)C(=O)N[C@@H](CC(=O)O)C(=O)N[C@@H](CC(N)=O)C(=O)N[C@@H](CCC(N)=O)C(=O)O [DYNORPHIN A (1-17)]	5.5	
CC(C)C[C@H](NC(=O)[C@H](Cc1ccccc1)NC(=O)CNC(=O)CNC(=O)[C@@H](N)Cc1ccc(O)cc1)C(=O)N[C@@H](CCCNC(=N)N)C(=O)N[C@@H](CCCNC(=N)N)C(=O)N[C@@H](CCC(N)=O)C(=O)N[C@@H](Cc1ccccc1)C(=O)N[C@@H](CCCCN)C(=O)N[C@H](C(=O)N[C@H](C(=O)N[C@H](C(=O)O)[C@@H](C)O)C(C)C)C(C)C [DYNORPHIN B]	6.7	
CC(C)C[C@H](NC(=O)[C@H](Cc1ccccc1)NC(=O)CNC(=O)[C@@H](C)NC(=O)[C@@H](N)Cc1ccc(O)cc1)C(=O)N[C@@H](CCCNC(=N)N)C(=O)N[C@@H](CCCCN)C(=O)N[C@@H](Cc1ccc([131I])cc1)C(=O)N1CCC[C@H]1C(=O)N[C@@H](CCCCN)C(=O)O		Kd [2]: 11 nM
CC(C)C[C@H](NC(=O)[C@H](Cc1ccccc1)NC(=O)CNC(=O)CNC(=O)[C@@H](N)Cc1ccc(O)cc1)C(=O)N[C@@H](CCCNC(=N)N)C(=O)N[C@@H](CCCCN)C(=O)N[C@@H](Cc1ccc(O)cc1)C(=O)N1CCC[C@H]1C(=O)N[C@@H](CCCCN)C(=O)O (H-YGGFLRKYPK-OH)	9.8	Ki [3]: 1.7 nM; Ki [4]: 2.4 nM
CC(C)C[C@H](NC(=O)[C@H](Cc1ccccc1)NC(=O)CNC(=O)[C@@H](C)NC(=O)[C@@H](N)Cc1ccc(O)cc1)C(=O)N[C@@H](CCCNC(=N)N)C(=O)N[C@@H](CCCCN)C(=O)N[C@@H](Cc1ccc(I)cc1)C(=O)N1CCC[C@H]1C(=O)N[C@@H](CCCCN)C(=O)O (H-Y[dA]GFLRK[Phe(4-I)]PK-OH)		Bmax [5]: 465 fmol/mg
C[C@@H](NC(=O)[C@@H](N)Cc1ccc(O)cc1)C(=O)NCC(=O)N(C)[C@@H](Cc1ccccc1)C(=O)NCCO [DAMGO]	1.4	
